Laboratory results: publication PMC9132982, “Inhibitory role of proguanil on the growth of bladder cancer via enhancing EGFR degradation and inhibiting its downstream signaling pathway to induce autophagy” (Cell Death & Disease, 2022)

Target: epidermal growth factor receptor (EGFR) (Homo sapiens, UniProt P00533)
Assay: SPRi with photo-crosslinked immobilized proguanil capturing proteins from T24 cell lysate, identified by LC-MS; no Kd
Format: cell-based

epidermal growth factor receptor (EGFR), sequence (P00533 25-1210): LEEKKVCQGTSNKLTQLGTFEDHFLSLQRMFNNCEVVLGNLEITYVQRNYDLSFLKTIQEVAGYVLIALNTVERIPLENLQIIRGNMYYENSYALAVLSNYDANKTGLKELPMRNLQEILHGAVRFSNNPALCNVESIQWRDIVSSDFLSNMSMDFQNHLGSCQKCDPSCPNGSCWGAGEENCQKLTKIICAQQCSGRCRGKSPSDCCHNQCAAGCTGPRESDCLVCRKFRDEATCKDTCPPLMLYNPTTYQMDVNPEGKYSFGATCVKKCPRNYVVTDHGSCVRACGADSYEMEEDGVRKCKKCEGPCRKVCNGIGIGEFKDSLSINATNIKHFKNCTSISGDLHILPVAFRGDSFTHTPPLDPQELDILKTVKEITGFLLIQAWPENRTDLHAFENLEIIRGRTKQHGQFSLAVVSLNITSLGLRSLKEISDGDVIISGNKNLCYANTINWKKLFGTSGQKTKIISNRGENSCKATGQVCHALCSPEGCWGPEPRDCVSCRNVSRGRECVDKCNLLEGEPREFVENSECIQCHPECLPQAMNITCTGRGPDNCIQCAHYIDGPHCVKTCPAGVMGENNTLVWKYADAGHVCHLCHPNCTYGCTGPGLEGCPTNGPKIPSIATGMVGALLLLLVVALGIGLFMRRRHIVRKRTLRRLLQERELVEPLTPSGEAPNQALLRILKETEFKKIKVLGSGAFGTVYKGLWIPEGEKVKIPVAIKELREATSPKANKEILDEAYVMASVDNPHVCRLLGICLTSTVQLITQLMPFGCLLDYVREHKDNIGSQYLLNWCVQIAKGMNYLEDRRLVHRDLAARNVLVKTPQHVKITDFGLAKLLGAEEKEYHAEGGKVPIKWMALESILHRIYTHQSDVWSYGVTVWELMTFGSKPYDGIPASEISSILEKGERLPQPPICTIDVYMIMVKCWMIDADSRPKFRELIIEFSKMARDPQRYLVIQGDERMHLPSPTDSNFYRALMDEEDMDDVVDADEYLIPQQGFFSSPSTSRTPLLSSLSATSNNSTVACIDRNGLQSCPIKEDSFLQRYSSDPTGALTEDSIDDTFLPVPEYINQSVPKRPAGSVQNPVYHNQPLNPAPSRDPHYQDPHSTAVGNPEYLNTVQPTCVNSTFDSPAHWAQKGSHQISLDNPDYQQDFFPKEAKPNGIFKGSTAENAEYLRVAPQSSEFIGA

[H]/N=C(\N/C(=N/[H])Nc1ccc(Cl)cc1)NC(C)C [proguanil]
SPRi with photo-crosslinked immobilized proguanil capturing proteins from T24 ce: surface plasmon resonance imaging (SPRi) experiments and found that proguanil strongly binds to EGFR (Fig. 1A)
